Experiments:
[1] = Selectivity ratio of IC50 for [Ca2+] antagonistic activity in aorta / IC50 for suppressive effect on rate of contraction; type: functional
[2] = Selectivity ratio of IC50 for [Ca2+] antagonistic activity in aorta / IC50 for suppressive effect on contractile force; type: functional
[3] = species on record: Cavia porcellus; test: Inhibitory concentration required to block Ca+2 induced contraction of K+ depolarized guinea pig taenia cecum; type: functional, Caecum
[4] = species on record: Cavia porcellus; test: Inhibitory concentration required to suppress the contractile force of guinea pig right atria; type: functional
[5] = species on record: Cavia porcellus; test: Inhibitory concentration required to suppress the rate of contraction of guinea pig right atria; type: functional
[6] = species on record: Cavia porcellus; test: Inhibitory concentration required to block Ca+2 induced contraction of K+ depolarized guinea pig aorta; type: functional

Row | Structure (SMILES) | IC50 ([3]; Cavia porcellus, Caecum) [nM] | IC50 [4] [nM] | IC50 ([5]; read-out: IC50) [nM] | IC50 [6] [nM] | IC50 [5] [nM] | IC50 [3] [nM] | Ratio [1] | Ratio [2]
1 | COc1ccc(OCCCN(C)CCc2cc(OC)c(OC)c(OC)c2)c(C2Sc3ccccc3N(C)C2=O)c1 (stereo unspecified) | 270 | 520 | 400 | 2400 | – | – | 6 | 4.6
2 | COc1ccc([C@@H]2Sc3ccccc3N(CCN(C)C)C(=O)[C@@H]2OC(C)=O)cc1 [DILTIAZEM] | – | 95 | 600 | 4500 | – | – | 7.5 | 47.4
3 | COc1ccc(CCN(C)CCCC(C#N)(c2ccc(OC)c(OC)c2)C(C)C)cc1OC (stereo unspecified) [VERAPAMIL] | – | 35 | – | 620 | 210 | – | 3 | 17.7
4 | COc1ccc(OCCCN(C)CCOc2ccc3c(c2)OCO3)c(C2(C)Sc3ccccc3N(C)C2=O)c1 (stereo unspecified) | 2100 | – | – | – | – | – | – | –
5 | COc1ccc(OCCCCN(C)CCc2cc(OC)c(OC)c(OC)c2)c(C2Sc3ccccc3N(C)C2=O)c1 (stereo unspecified) | 350 | – | – | – | – | – | – | –
6 | COc1ccc(OCCCN(C)CCOc2ccc3c(c2)OCO3)c(C2(C(C)C)Sc3ccccc3N(C)C2=O)c1 (stereo unspecified) | > 10000 | – | – | – | – | – | – | –
7 | COc1ccc(OCCCN(C)CCOc2ccc3c(c2)OCO3)c(C2(OC)Sc3ccccc3N(C)C2=O)c1 (stereo unspecified) | 250 | – | – | – | – | – | – | –
8 | COc1ccc(OCCCN(C)CCOc2ccc3c(c2)OCO3)c(C2(SC)Sc3ccccc3N(C)C2=O)c1 (stereo unspecified) | 1500 | – | – | – | – | – | – | –
9 | COc1ccc(OCCCCN(C)CCOc2cc(OC)c(OC)c(OC)c2)c(C2Sc3ccccc3N(C)C2=O)c1 (stereo unspecified) | 160 | 200 | 190 | 1500 | – | – | 7.9 | 7.5

More lines, main results first:

Row | IC50 ([3]; Cavia porcellus, Caecum) [nM] | IC50 [4] [nM] | IC50 ([5]; read-out: IC50) [nM] | IC50 [6] [nM] | IC50 [5] [nM] | IC50 [3] [nM] | Structure (SMILES) | Ratio [1] | Ratio [2]
10 | > 10000 | – | – | – | – | – | COc1ccc(OCCCN(C)CCOc2ccc3c(c2)CCC3)c(C2Sc3ccccc3N(C)C2=O)c1 (stereo unspecified) | – | –
11 | 490 | – | – | – | – | – | COc1ccc(OCCCNCCOc2ccc3c(c2)OCO3)c(C2Sc3ccccc3N(C)C2=O)c1 (stereo unspecified) | – | –
12 | – | 310 | 590 | 660 | – | 180 | COc1ccc(OCCCN(C)CCOc2ccc3c(c2)OCO3)c(C2Sc3ccccc3N(C)C2=O)c1 (stereo in doubt; 15) | 1.1 | 2.1
13 | 230 | 440 | 600 | 2900 | – | – | COc1ccc(OCCCCN(C)CCOc2ccc(OC)c(OC)c2)c(C2Sc3ccccc3N(C)C2=O)c1 (stereo unspecified) | 4.8 | 6.6
14 | 89 | 68 | 180 | 230 | – | – | COc1ccc(OCCCN(C)CCOc2ccc3c(c2)OCO3)c([C@H]2Sc3ccccc3N(C)C2=O)c1 [SEMOTIADIL] | 1.3 | 3.4
15 | 530 | – | – | – | – | – | COc1ccc(OCCN(C)CCCCOc2ccc(OC)cc2C2Sc3ccccc3N(C)C2=O)cc1 (stereo unspecified) | – | –
16 | > 10000 | – | – | – | – | – | COc1ccc(OCCCN(C)CCOc2ccc3c(c2)OCO3)c(C2Sc3ccccc3N(C)C2=S)c1 (stereo unspecified) | – | –
17 | 510 | – | – | – | – | – | COc1ccc(OCCCN(C)CCOc2c(OC)cccc2OC)c(C2Sc3ccccc3N(C)C2=O)c1 (stereo unspecified) | – | –
18 | 1900 | – | – | – | – | – | COc1ccc(OCCCN(CCOc2ccc3c(c2)OCO3)C(C)C)c(C2Sc3ccccc3N(C)C2=O)c1 (stereo unspecified) | – | –
19 | 230 | 370 | 500 | 4100 | – | – | COc1ccc(OCCCN(C)CCOc2cc(OC)c(OC)c(OC)c2)c(C2Sc3ccccc3N(C)C2=O)c1 (stereo unspecified) | 8.2 | 11.1
20 | 550 | – | – | – | – | – | COc1cc(OC)cc(OCCN(C)CCCOc2ccc(OC)cc2C2Sc3ccccc3N(C)C2=O)c1 (stereo unspecified) | – | –
21 | > 10000 | – | – | – | – | – | COc1ccc(OCCCN(C)CCOc2ccc3c(c2)OCO3)c(C2CN(C)c3ccccc3S2)c1 (stereo unspecified) | – | –
22 | – | – | – | – | – | 600 | COc1ccc(OCCCN(C)CCOc2ccc3c(c2)OCO3)c(C2Sc3ccccc3N(C)C2=O)c1 (stereo in doubt; (-)-15) | – | –
23 | 170 | 94 | 190 | 330 | – | – | COc1ccc(OCCCCN(C)CCOc2ccc3c(c2)OCO3)c(C2Sc3ccccc3N(C)C2=O)c1 (stereo unspecified) | 1.7 | 3.5
